Assay results as given in patent publication US10251860B2, “Compounds for bone healing” (University of Pittsburgh—Of the Commonwealth System of …, priority 2015, dated 2019).

Experiments:
[1] = tested on: bone marrow stromal cell line derived from C57BL/6NTac mice; assay: In vitro clonogenic radiation survival curves; type: cell-based, mouse; conditions: 0 to 8 Gy
Protocol: FIG. 12A is a graph of surviving fraction versus radiation dose, illustrating the in vitro radioprotection and mitigation of bone marrow stromal cells. In vitro survival curves were performed using a bone marrow stromal cell line derived from C57BL/6NTac mice. Cells were incubated in 100 μM MMS350 for one hour before irradiation or was added to the cells 10 min after irradiation. Cells were irradiated to doses ranging from 0 to 8 Gy, plated in 4 well tissue culture plates, incubated for 7 days at 37° C. in a humidified CO2 incubator, and stained with crystal violet. Colonies of greater than 50 cells were counted and analyzed using a linear quadratic model or single-hit, multi-target model.
The murine C57BL/6 bone marrow stromal cell line (Epperly M W, Sikora C A, Defilippi S, Gretton J E, Greenberger J S. Bone marrow origin of myofibroblasts in irradiation pulmonary fibrosis. Am J Resp Molecular Cell Biology 2003; 29:213-224) and its use in clonogenic radiation survival curves has been described (Epperly M W, Gretton J E, Bernarding M, Nie S, Rasul B, Greenberger J S. Mitochondrial localization of copper/zinc superoxide dismutase (Cu/ZnSOD) confers radioprotective functions in vitro and in vivo. Radiation Research 2003; 160:568-578).
Cell lines were irradiated at dose rate of 70 cGy per minute using a Cesium Gamma Cell Irradiator according to published methods. […]

32D cl 3 cells [2] = assay: Irradiated 32D cl 3 cells, cell count and viability; type: cell-based, murine; conditions: 10 μM, 0-7 Gy, day 3 or 5 after irradiation
Protocol: FIGS. 10A-10D provide data from a screening experiment where 32D cl 3 cells were irradiated to doses of 0, 1, 3, 5, or 7 Gy and placed in T25 flasks. Either JP4-039 or MM350 were added at 10 μM and incubated in a CO2 incubator at 37° C. At Day 3 or 5 after irradiation, the cells were counted and the viability determined.

32D cl 3 cells [3] = assay: 32D cl 3 colony formation in semisolid medium after irradiation; type: cell-based, murine; conditions: delivered before or after irradiation
PKD1 = target: T1, PKD1 (Homo sapiens, UniProt Q15139); assay: Radiometric PKD1 inhibition assay; type: biochemical; conditions: stock solutions in 25% 3/NMP
T1 sequence (Q15139 1-912): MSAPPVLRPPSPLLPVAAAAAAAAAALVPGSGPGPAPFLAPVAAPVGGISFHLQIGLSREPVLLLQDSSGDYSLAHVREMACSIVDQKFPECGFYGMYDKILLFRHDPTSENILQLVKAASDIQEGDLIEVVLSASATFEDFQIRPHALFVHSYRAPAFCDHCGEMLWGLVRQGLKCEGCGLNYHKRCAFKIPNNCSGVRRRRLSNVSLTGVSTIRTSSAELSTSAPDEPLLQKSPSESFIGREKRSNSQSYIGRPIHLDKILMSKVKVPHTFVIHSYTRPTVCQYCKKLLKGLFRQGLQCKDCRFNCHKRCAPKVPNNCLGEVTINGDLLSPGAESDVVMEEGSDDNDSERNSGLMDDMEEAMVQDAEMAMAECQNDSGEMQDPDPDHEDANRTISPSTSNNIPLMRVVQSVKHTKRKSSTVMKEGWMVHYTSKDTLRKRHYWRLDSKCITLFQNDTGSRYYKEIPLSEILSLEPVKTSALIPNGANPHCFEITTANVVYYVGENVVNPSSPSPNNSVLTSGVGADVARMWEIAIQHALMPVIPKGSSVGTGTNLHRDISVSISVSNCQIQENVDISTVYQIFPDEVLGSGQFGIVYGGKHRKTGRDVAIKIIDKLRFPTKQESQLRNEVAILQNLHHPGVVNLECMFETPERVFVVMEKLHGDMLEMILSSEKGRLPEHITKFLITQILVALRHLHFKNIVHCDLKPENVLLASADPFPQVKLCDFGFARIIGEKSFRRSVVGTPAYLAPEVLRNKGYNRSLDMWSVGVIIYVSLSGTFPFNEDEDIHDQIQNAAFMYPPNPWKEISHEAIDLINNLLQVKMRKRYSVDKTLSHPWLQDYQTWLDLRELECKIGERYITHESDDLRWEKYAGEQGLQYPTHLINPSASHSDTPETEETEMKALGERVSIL
Text: Recently, a series of compounds with nanomolar to micromolar inhibitory activity against the serine/threonine protein kinase D (PKD) isoform PKD1 was disclosed (FIG. 7). Several lead structures, especially those containing a pyrimidine moiety, suffered from poor solubility not only in aqueous media but also in DMSO. To test the feasibility of using sulfoxide 3 as a cosolvent for in vitro assays, its use in the radiometric PKD1 inhibition assay was examined. Inhibitory activity at two concentrations (1 μM and 10 μM) was measured using compound stock solutions in three formulations: DMSO, NMP, and 25% 3/NMP (FIGS. 8 and 9).

[4] = Compound storage in 25% w/w solutions of 3 and NMP; type: physicochemical; conditions: 25% w/w 3 in NMP, −20° C.
Protocol: Because sulfoxide 3 is a solid, it would have to be mixed with an appropriate water-soluble cosolvent to act as a compound storage additive. NMP was chosen for exploring this potential application due to its thermal stability and low toxicity. […] The compound test set (FIG. 2) was stored in 25% w/w solutions of 3 and NMP for 6 weeks at −20° C.

mice = assay: Dose escalation experiments in mice; type: in vivo, mouse
Text: In particular, certain embodiments of the oxetane-substituted compounds (e.g., MMS350) are radiation protector/mitigators that are water soluble, and easily administered (e.g., orally administered to a subject). […] Furthermore, MnSOD-PL is relatively ineffective when delivered weeks-months after irradiation, at the time that fibrosis is forming, and appears to be only effective when delivered prior to irradiation. In contrast, MMS350 as shown in the data reported herein, has high effectiveness when delivered months after irradiation and at the time of initiation of radiation fibrosis in the lung.

CC1(C[S+]([O-])CC2(C)COC2)COC1 [Compound 3, 3,3′-Sulfinylbis(methylene)bis(3-methyloxetane)]
D0 ([1]; 100 μM MMS350 added 10 min after irradiation, control 1.9±0.1, p=0.0444): 2.4±0.3
shoulder on the survival curve (ñ) ([1]; 100 μM MMS350 for one hour before irradiation, control 5.8±1.1, p=0.0039): 14.9±2.9
number of cells and viability (32D cl 3 cells [2]): comparable to JP4-039
radiation protection and mitigation of colony forming cells (32D cl 3 cells [3]): significant effectiveness
interference with PKD1 inhibition assay (PKD1): did not interfere with the standard PKD1 inhibition assay
precipitation on storage [4]: partly precipitated from the solution
toxic dose (mice): a toxic dose has not yet been reached
